Experimental data reported in the NIST ThermoML archive (doi:10.1016/j.fluid.2011.11.022).
± gives the expanded uncertainty stated by the source.

Settings: Liquid; for mass density: Buoyancy - hydrostatic balance; for viscosity: Falling or rolling sphere viscometry

OCCO [1,2-ethanediol]
Settings	mass density [kg/m3]	viscosity [mPa·s]
293.15 K, 98 kPa	1113.58 ± 6.7	21.1 ± 0.86
293.15 K, 49030 kPa	1134.56 ± 6.8	26.75 ± 1.1
293.15 K, 98060 kPa	1147.72 ± 6.9	33.42 ± 1.4
293.15 K, 147100 kPa	1159.85 ± 7	41.19 ± 1.7
293.15 K, 196130 kPa	1173.34 ± 7	50.33 ± 2
293.15 K, 245160 kPa	1185.44 ± 7.1	60.43 ± 2.4
312.46 K, 98 kPa	1100.88 ± 6.6	9.925 ± 0.4
312.46 K, 98060 kPa	1139.02 ± 6.8	14.82 ± 0.61
312.49 K, 49030 kPa	1123.04 ± 6.7	12.24 ± 0.5
312.49 K, 147100 kPa	1153.18 ± 6.9	17.64 ± 0.72
312.65 K, 245160 kPa	1179.39 ± 7.1	24.69 ± 1
334.87 K, 98 kPa	1085.13 ± 6.5	4.949 ± 0.2
335 K, 49030 kPa	1108.43 ± 6.7	5.952 ± 0.24
335.3 K, 98060 kPa	1127.05 ± 6.8	7.031 ± 0.29
335.35 K, 245160 kPa	1169.07 ± 7	11.15 ± 0.46
335.43 K, 147100 kPa	1143.57 ± 6.9	8.234 ± 0.34
335.45 K, 196130 kPa	1156.71 ± 6.9	9.608 ± 0.4
349.24 K, 98 kPa	1074.46 ± 6.5	3.517 ± 0.14
349.5 K, 49030 kPa	1098.33 ± 6.6	4.157 ± 0.17
349.65 K, 98060 kPa	1118.59 ± 6.7	4.89 ± 0.2
349.67 K, 147100 kPa	1136.69 ± 6.8	5.688 ± 0.23
349.8 K, 196130 kPa	1149.28 ± 6.9	6.541 ± 0.27
349.91 K, 245160 kPa	1161.91 ± 7	7.454 ± 0.3
365.7 K, 98 kPa	1061.7 ± 6.4	2.39 ± 0.097
366.1 K, 49030 kPa	1086.11 ± 6.5	2.816 ± 0.12
366.15 K, 98060 kPa	1107.99 ± 6.7	3.302 ± 0.13
366.37 K, 147100 kPa	1127.71 ± 6.8	3.812 ± 0.15
366.48 K, 196130 kPa	1139.94 ± 6.8	4.344 ± 0.18
366.8 K, 245160 kPa	1153.08 ± 6.9	4.889 ± 0.2
380.15 K, 98060 kPa	1098.24 ± 6.6	2.558 ± 0.1
380.82 K, 98 kPa	1049.47 ± 6.3	1.872 ± 0.076
381 K, 49030 kPa	1074.54 ± 6.5	2.207 ± 0.09
381.2 K, 196130 kPa	1131.06 ± 6.8	3.345 ± 0.14
381.27 K, 147100 kPa	1118.88 ± 6.7	2.932 ± 0.12
381.3 K, 245160 kPa	1145.04 ± 6.9	3.784 ± 0.15
395.55 K, 98 kPa	1037.07 ± 6.2	1.419 ± 0.058
395.6 K, 49030 kPa	1062.66 ± 6.4	1.673 ± 0.068
395.61 K, 98060 kPa	1086.68 ± 6.5	1.936 ± 0.079
395.65 K, 147100 kPa	–	2.214 ± 0.09
395.73 K, 196130 kPa	1121.71 ± 6.7	2.501 ± 0.1
395.8 K, 245160 kPa	1136.57 ± 6.8	2.811 ± 0.11
421.7 K, 98 kPa	1013.93 ± 6.1	0.96 ± 0.039
421.71 K, 49030 kPa	1040.05 ± 6.2	1.174 ± 0.048
421.8 K, 98060 kPa	1065.2 ± 6.4	1.345 ± 0.055
421.9 K, 147100 kPa	1090.87 ± 6.5	1.521 ± 0.062
422 K, 196130 kPa	–	1.716 ± 0.07
422 K, 245160 kPa	1120.22 ± 6.7	1.898 ± 0.077
464.4 K, 98 kPa	972.98 ± 5.8	0.652 ± 0.027
464.47 K, 98060 kPa	1025.08 ± 6.2	0.97 ± 0.039
464.53 K, 196130 kPa	1069.52 ± 6.4	1.203 ± 0.049
464.53 K, 245160 kPa	1090.75 ± 6.5	1.356 ± 0.055
464.54 K, 147100 kPa	1055.29 ± 6.3	1.11 ± 0.045
464.6 K, 49030 kPa	999.13 ± 6	0.877 ± 0.036

OCCOCCO [diethylene glycol]
Settings	mass density [kg/m3]	viscosity [mPa·s]
293.15 K, 98 kPa	1117.04 ± 6.7	36.52 ± 1.5
293.15 K, 49030 kPa	1137.67 ± 6.8	52.72 ± 2.1
293.15 K, 98060 kPa	1158.16 ± 7	74.16 ± 3.1
293.15 K, 147100 kPa	1171 ± 7	102.6 ± 4.7
293.15 K, 196130 kPa	1184.89 ± 7.1	139.9 ± 7.2
293.15 K, 245160 kPa	1196.63 ± 7.2	187.3 ± 11
298.15 K, 98 kPa	1114.02 ± 6.7	28.36 ± 1.2
298.15 K, 49030 kPa	1135.41 ± 6.8	40.36 ± 1.6
298.15 K, 98060 kPa	1155.68 ± 6.9	56.52 ± 2.3
298.15 K, 147100 kPa	1168.88 ± 7	77.16 ± 3.3
298.15 K, 196130 kPa	1182.6 ± 7.1	103.8 ± 4.8
298.15 K, 245160 kPa	1194.5 ± 7.2	138.3 ± 7.1
312.6 K, 98 kPa	1104.9 ± 6.6	15.25 ± 0.62
312.62 K, 49030 kPa	1128.43 ± 6.8	21.04 ± 0.86
312.63 K, 98060 kPa	1148.18 ± 6.9	28.2 ± 1.2
312.67 K, 147100 kPa	1162.46 ± 7	37.14 ± 1.5
312.71 K, 196130 kPa	1175.84 ± 7.1	48.29 ± 2
312.75 K, 245160 kPa	1188.18 ± 7.1	62.07 ± 2.6
329.28 K, 98 kPa	1093.62 ± 6.6	8.458 ± 0.35
329.33 K, 98060 kPa	1138.99 ± 6.8	14.73 ± 0.6
329.33 K, 196130 kPa	1167.96 ± 7	23.82 ± 0.98
329.33 K, 245160 kPa	1180.84 ± 7.1	29.61 ± 1.2
329.38 K, 49030 kPa	1119.54 ± 6.7	11.29 ± 0.46
329.38 K, 147100 kPa	1154.56 ± 6.9	18.83 ± 0.77
344.99 K, 98 kPa	1082.27 ± 6.5	5.34 ± 0.22
345.2 K, 49030 kPa	1110.34 ± 6.7	7.062 ± 0.29
345.38 K, 98060 kPa	1129.61 ± 6.8	8.969 ± 0.37
345.47 K, 147100 kPa	1146.46 ± 6.9	11.23 ± 0.46
345.61 K, 196130 kPa	1160.06 ± 7	13.81 ± 0.57
345.78 K, 245160 kPa	1173.38 ± 7	16.75 ± 0.68
349.77 K, 98 kPa	1078.67 ± 6.5	4.809 ± 0.2
350.06 K, 49030 kPa	1107.36 ± 6.6	6.25 ± 0.26
350.13 K, 147100 kPa	1144.02 ± 6.9	9.866 ± 0.4
350.16 K, 98060 kPa	1126.71 ± 6.8	7.904 ± 0.32
350.4 K, 196130 kPa	1157.71 ± 7	12.04 ± 0.49
366.77 K, 98 kPa	1065.35 ± 6.4	3.231 ± 0.13
367.13 K, 49030 kPa	1096.31 ± 6.6	4.124 ± 0.17
367.26 K, 147100 kPa	1134.7 ± 6.8	6.331 ± 0.26
367.3 K, 98060 kPa	1115.94 ± 6.7	5.145 ± 0.21
367.37 K, 196130 kPa	1149.25 ± 6.9	7.607 ± 0.31
367.61 K, 245160 kPa	1163.2 ± 7	9.086 ± 0.37
413.65 K, 98 kPa	1024.3 ± 6.2	1.409 ± 0.057
413.8 K, 49030 kPa	1061.47 ± 6.4	1.78 ± 0.073
413.93 K, 98060 kPa	1083.55 ± 6.5	2.153 ± 0.088
414.01 K, 147100 kPa	1106.4 ± 6.6	2.554 ± 0.1
414.09 K, 196130 kPa	1124.99 ± 6.8	2.987 ± 0.12
414.29 K, 245160 kPa	1140.38 ± 6.8	3.474 ± 0.14
463.94 K, 98060 kPa	1043.8 ± 6.3	1.218 ± 0.05
463.99 K, 49030 kPa	1016.46 ± 6.1	1.002 ± 0.041
464.05 K, 98 kPa	973.11 ± 5.8	0.789 ± 0.032
464.09 K, 147100 kPa	1071.5 ± 6.4	1.432 ± 0.058
464.2 K, 196130 kPa	1097.41 ± 6.6	1.655 ± 0.067
464.37 K, 245160 kPa	1114.3 ± 6.7	1.879 ± 0.077

OCCOCCOCCO [triethylene glycol]
Settings	mass density [kg/m3]	viscosity [mPa·s]
298.15 K, 98 kPa	1119.75 ± 6.7	36.82 ± 1.5
298.15 K, 49030 kPa	1143.46 ± 6.9	55.23 ± 2.3
298.15 K, 98060 kPa	1161.38 ± 7	80.29 ± 3.5
298.15 K, 147100 kPa	1175.25 ± 7.1	114.4 ± 5.5
298.15 K, 196130 kPa	1189.31 ± 7.2	160.6 ± 8.7
298.15 K, 245160 kPa	1200.31 ± 7.2	221.8 ± 14
312.96 K, 98 kPa	1109.61 ± 6.7	19.03 ± 0.79
313.05 K, 49030 kPa	1134.18 ± 6.8	27.42 ± 1.1
313.1 K, 98060 kPa	1152.38 ± 6.9	38.28 ± 1.6
313.18 K, 147100 kPa	1166.44 ± 7	52.5 ± 2.1
313.25 K, 196130 kPa	1180.35 ± 7.1	70.68 ± 3
313.26 K, 245160 kPa	1191.47 ± 7.2	93.99 ± 4.3
334.96 K, 98 kPa	1093.69 ± 6.6	9.002 ± 0.37
335.11 K, 49030 kPa	1119.52 ± 6.7	12.45 ± 0.52
335.14 K, 98060 kPa	1138.49 ± 6.8	16.7 ± 0.69
335.2 K, 147100 kPa	1153.34 ± 6.9	22.03 ± 0.92
335.25 K, 196130 kPa	1167.46 ± 7	28.48 ± 1.2
335.26 K, 245160 kPa	1178.87 ± 7.1	36.37 ± 1.5
349.25 K, 98 kPa	1082.8 ± 6.5	5.945 ± 0.25
349.94 K, 196130 kPa	1158.94 ± 7	17.53 ± 0.73
349.98 K, 49030 kPa	1109.01 ± 6.7	8.061 ± 0.33
349.98 K, 98060 kPa	1128.74 ± 6.8	10.66 ± 0.44
349.99 K, 245160 kPa	1170.6 ± 7	21.84 ± 0.91
350.03 K, 147100 kPa	1144.4 ± 6.9	13.75 ± 0.57
364.44 K, 98 kPa	1070.74 ± 6.4	4.131 ± 0.17
364.44 K, 49030 kPa	1098.31 ± 6.6	5.537 ± 0.23
364.72 K, 98060 kPa	1118.72 ± 6.7	7.149 ± 0.3
365.03 K, 147100 kPa	1135.26 ± 6.8	9.021 ± 0.37
365.07 K, 196130 kPa	1150.26 ± 6.9	11.24 ± 0.46
365.2 K, 245160 kPa	1162.2 ± 7	13.8 ± 0.57
413.73 K, 98 kPa	1028.27 ± 6.2	1.679 ± 0.069
414 K, 49030 kPa	1058.03 ± 6.4	2.179 ± 0.09
414.15 K, 98060 kPa	1082.77 ± 6.5	2.836 ± 0.12
414.27 K, 147100 kPa	1104.57 ± 6.7	3.32 ± 0.14
414.3 K, 196130 kPa	1122.57 ± 6.8	3.995 ± 0.17
414.43 K, 245160 kPa	1136 ± 6.8	4.485 ± 0.19
462.25 K, 98 kPa	981.42 ± 5.9	0.997 ± 0.041
462.26 K, 49030 kPa	1013.43 ± 6.1	1.303 ± 0.054
462.32 K, 98060 kPa	1044.24 ± 6.3	1.614 ± 0.067
462.41 K, 147100 kPa	1073.54 ± 6.5	1.941 ± 0.08
462.45 K, 196130 kPa	1096.35 ± 6.6	2.3 ± 0.095
462.58 K, 245160 kPa	1111.83 ± 6.7	2.678 ± 0.11
